From patent US20140045823A1 (Neurocrine Biosciences, Inc., priority 2012, published 2014) come the findings set out here.

pEC50: −log10 of the molar value.

In general, pEC50 refers to −log10 of the EC50, conventionally taken in molar units. Read a low pEC50 as a high EC50.

This experiment concerns the target T1, human GPR119 (Homo sapiens, UniProt Q8TDV5).
T1 construct: expression vector for human GPR119 cDNA (Acc. No. NP_848566); expressed in transfected cells; Min-6/hGPR119
T1 sequence (Q8TDV5 1-335): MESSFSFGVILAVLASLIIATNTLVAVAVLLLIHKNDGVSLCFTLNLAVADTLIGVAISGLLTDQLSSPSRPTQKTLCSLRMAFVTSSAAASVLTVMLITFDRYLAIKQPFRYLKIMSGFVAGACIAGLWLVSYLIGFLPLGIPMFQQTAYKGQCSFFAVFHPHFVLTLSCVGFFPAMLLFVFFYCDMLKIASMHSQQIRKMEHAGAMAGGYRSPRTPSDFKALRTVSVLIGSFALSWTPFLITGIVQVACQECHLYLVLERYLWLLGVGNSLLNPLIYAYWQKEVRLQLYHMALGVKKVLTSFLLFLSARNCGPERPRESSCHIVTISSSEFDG
In words: AlphaScreen cAMP assay in MIN6 cells stably transfected with human GPR119. Format: cell-based. Particulars: Min-6/hGPR119 cells, 45 min at room temperature. The procedure, abridged:
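cAMP accumulation quantified by AlphaScreen after 45 min compound stimulation at about 20 °C. Stimulation buffer: pH 7.4 HEPES saline with 0.5 mM IBMX, 0.1% BSA, 1% DMSO final. Cells: MIN6 stably transfected with human GPR119, 10000/well, cultured 24 h beforehand.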
The compound `CC(C)(C)OC(=O)N1CCC(N(C(=O)c2cnc(-c3ccc(C(=O)NCc4cncnc4)c(F)c3)nc2)C2CC2)CC1` [Example 162, 4-[Cyclopropyl-(2-{3-fluoro-4-[(pyrimidin-5-ylmethyl)-carbamoyl]-phenyl}-pyrimidine-5-carbonyl)-amino]-piperidine-1-carboxylic acid tert-butyl ester] had a pEC50 of 6.30.

`CC(C)(C)OC(=O)N1CCC(N(C(=O)c2cnc(-c3ccc(C(=O)N4CC(F)(F)C4)cc3F)nc2)C2CC2)CC1` [Example 147, 4-(Cyclopropyl-{2-[4-(3,3-difluoro-azetidine-1-carbonyl)-2-fluoro-phenyl]-pyrimidine-5-carbonyl}-amino)-piperidine-1-carboxylic acid tert-butyl ester] gave a pEC50 of 6.80.

The compound `CN(CC1CCOCC1)C(=O)c1ccc(-c2ncc(C(=O)N(C3CC3)C3CCN(C(=O)OC(C)(C)C)CC3)cn2)cc1F` [Example 158, 4-[Cyclopropyl-(2-{3-fluoro-4-[methyl-(tetrahydro-pyran-4-ylmethyl)-carbamoyl]-phenyl}-pyrimidine-5-carbonyl)-amino]-piperidine-1-carboxylic acid tert-butyl ester] gave a negative-log EC50 (pEC50) of 6.44.

As for `COc1ccc(NC(=O)c2ccc(-c3ncc(C(=O)N(C4CC4)C4CCN(C(=O)OC(C)(C)C)CC4)cn3)cc2)c(OC)c1` [Example 238, 4-(Cyclopropyl-{2-[4-(2,4-dimethoxy-phenylcarbamoyl)-phenyl]-pyrimidine-5-carbonyl}-amino)-piperidine-1-carboxylic acid tert-butyl ester], the pEC50 is 6.95.

`CC(C)(C)OC(=O)N1CCC(N(C(=O)c2cnc(-c3ccc(C(=O)Nc4ccc(O)cc4)c(F)c3)nc2)C2CC2)CC1` [Example 116, 4-(Cyclopropyl-{2-[3-fluoro-4-(4-hydroxy-phenylcarbamoyl)-phenyl]-pyrimidine-5-carbonyl}-amino)-piperidine-1-carboxylic acid tert-butyl ester] showed a pEC50 of 6.35.

The compound `COC(C)CN(C)C(=O)c1ccc(-c2ncc(C(=O)N(C3CC3)C3CCN(C(=O)OC(C)(C)C)CC3)cn2)cc1` (stereo not shown) [Example 173, 4-[Cyclopropyl-(2-{4-[(2-methoxy-propyl)-methyl-carbamoyl]-phenyl}-pyrimidine-5-carbonyl)-amino]-piperidine-1-carboxylic acid tert-butyl ester] showed a pEC50 of 6.63.

Compound `CC(C)(C)OC(=O)N1CCC(N(C(=O)c2cnc(-c3ccc(C(=O)NCCOC(F)(F)F)cc3)nc2)C2CC2)CC1` [Example 227, 4-(Cyclopropyl-{2-[4-(2-trifluoromethoxy-ethylcarbamoyl)-phenyl]-pyrimidine-5-carbonyl]-amino)-piperidine-1-carboxylic acid tert-butyl ester] had a pEC50 of 6.79.

`Cc1cnc(CNC(=O)c2ccc(-c3ncc(C(=O)N(C4CC4)C4CCN(C(=O)OC(C)(C)C)CC4)cn3)cc2F)s1` [Example 111, 4-[Cyclopropyl-(2-{3-fluoro-4-[(5-methyl-thiazol-2-ylmethyl)-carbamoyl]-phenyl}-pyrimidine-5-carbonyl)-amino]-piperidine-1-carboxylic acid tert-butyl ester] gave a negative logarithm of the EC50 (pEC50) of 7.19.

On to `COCC(C)N(C)C(=O)c1ccc(-c2ncc(C(=O)N(C3CC3)C3CCN(C(=O)OC(C)(C)C)CC3)cn2)cc1F` (stereo not shown) [Example 106, 4-[Cyclopropyl-(2-{3-fluoro-4-[(2-methoxy-1-methyl-ethyl)-methyl-carbamoyl]-phenyl}-pyrimidine-5-carbonyl)-amino]-piperidine-1-carboxylic acid tert-butyl ester], for which the negative logarithm of the EC50 (pEC50) was 6.60.

For the compound `Cc1ncoc1-c1ccc(C(=O)N(C2CC2)C2CCN(C(=O)OC(C)(C)C)CC2)cn1` [Example 13, 4-{Cyclopropyl-[6-(4-methyl-oxazol-5-yl)-pyridine-3-carbonyl]amino}-piperidine-1-carboxylic acid tert-butyl ester], the pEC50 is 6.88.

In turn, `CC(C)(C)OC(=O)N1CCC(N(C(=O)c2cnc(-c3ccncc3)nc2)C2CC2)CC1` [Example 63, 4-[Cyclopropyl-(2-pyridin-4-yl-pyrimidine-5-carbonyl)-amino]-piperidine-1-carboxylic acid tert-butyl ester] gave a pEC50 of 7.38.

The compound `CC(O)c1cccc(NC(=O)c2ccc(-c3ncc(C(=O)N(C4CC4)C4CCN(C(=O)OC(C)(C)C)CC4)cn3)cc2F)c1` (stereo not shown) [Example 150, 4-[Cyclopropyl-(2-{3-fluoro-4-[3-(1-hydroxy-ethyl)-phenylcarbamoyl]-phenyl}-pyrimidine-5-carbonyl)-amino]-piperidine-1-carboxylic acid tert-butyl ester] showed a pEC50 of 6.62.

In the case of `CCOc1ccc(-c2ncc(C(=O)N(C3CC3)C3CCN(C(=O)OC(C)C)CC3)cn2)cn1` [Example 59, 4-{Cyclopropyl-[2-(6-ethoxy-pyridin-3-yl)-pyrimidine-5-carbonyl]-amino}-piperidine-1-carboxylic acid isopropyl ester], the pEC50 is 6.78.

In turn, `CN(CCC#N)C(=O)c1ccc(-c2ncc(C(=O)N(C3CC3)C3CCN(C(=O)OC(C)(C)C)CC3)cn2)cc1` [Example 177, 4-[(2-{4-[(2-Cyano-ethyl)-methyl-carbamoyl]-phenyl}-pyrimidine-5-carbonyl)-cyclopropyl-amino]-piperidine-1-carboxylic acid tert-butyl ester] showed a pEC50 of 6.34.

In turn, `CC(C)(C)OC(=O)N1CCC(N(C(=O)c2cnc(-c3ccc(C#N)cc3F)o2)C2CC2)CC1` [Example 31, 4-{[2-(4-Cyano-2-fluoro-phenyl)-oxazole-5-carbonyl]-cyclopropyl-amino}-piperidine-1-carboxylic acid tert-butyl ester] gave a pEC50 of 7.32.

Compound `CN(C)C(=O)CNC(=O)c1ccc(-c2ncc(C(=O)N(C3CC3)C3CCN(C(=O)OC(C)(C)C)CC3)cn2)cc1` [Example 200, 4-(Cyclopropyl-{2-[4-(dimethylcarbamoylmethyl-carbamoyl)-phenyl]-pyrimidine-5-carbonyl}-amino)-piperidine-1-carboxylic acid tert-butyl ester] gave a pEC50 of 6.35.

`CC(C)(C)OC(=O)N1CCC(N(C(=O)c2nc(-c3ccc(Br)cc3F)no2)C2CC2)CC1` [Example 22, 4-{[3-(4-Bromo-2-fluoro-phenyl)-[1,2,4]oxadiazole-5-carbonyl]-cyclopropyl-amino}-piperidine-1-carboxylic acid tert-butyl ester] gave a pEC50 of 6.68.

Compound `Cc1nc(CNC(=O)c2ccc(-c3ncc(C(=O)N(C4CC4)C4CCN(C(=O)OC(C)(C)C)CC4)cn3)cc2F)cs1` [Example 119, 4-[Cyclopropyl-(2-{3-fluoro-4-[(2-methyl-thiazol-4-ylmethyl)-carbamoyl]-phenyl}-pyrimidine-5-carbonyl)-amino]-piperidine-1-carboxylic acid tert-butyl ester] had a pEC50 of 6.83.

In the case of `CC(C)(C)OC(=O)N1CCC(N(C(=O)c2cnc(-c3ccc(C(=O)N4CCC[C@H]4C#N)c(F)c3)nc2)C2CC2)CC1` [Example 125, 4-({2-[4-(2-Cyano-pyrrolidine-1-carbonyl)-3-fluoro-phenyl]-pyrimidine-5-carbonyl}-cyclopropyl-amino)-piperidine-1-carboxylic acid tert-butyl ester], the pEC50 is 6.74.
